The source of these data is patent US20250283048A1, “PLATELET-ACTIVATING FACTOR BLOCKADE INHIBITS TUMOR GROWTH” (The Johns Hopkins University, priority 2022, published 2025).

Assay [1] relates to TP53/CDKN2A^KO GEJ organoids. As to the kind of experiment: Organoid viability assay (WST-1 assay). In kind it is cell-based, human. How it is done:
To quantify metabolically active viable cells, organoids were seeded onto 96-well plates and cultured. At indicated time points, 10 μL per well of Cell Proliferation Reagent WST-1 assay kits were added to the 96-well plates and incubated with organoids for 90 minutes. After incubation, only media was transferred to the wells of a new 96-well plate, which was read at an absorbance of 450 nm by a Thermo Scientific Microplate Reader. All experiments were performed in triplicate.
For orientation: Tetrazolium dyes change colour on reduction, which living cells bring about.

Assay [2] has as its target TP53/CDKN2A^KO GEJ organoids. As to the kind of experiment: Ki67 immunofluorescence labeling index. The class given is cell-based, human. To be noted: WEB2086 at various concentrations vs vehicle control (0.1% DMSO); Day 10. The method, then:
(§1) Organoid cultures and tissues were fixed overnight in 10% formalin at room temperature. Paraffin-embedded organoids and tissues were serially sectioned into 10-μm slices. Paraffin sections were deparaffinized, rehydrated, followed by either staining for hematoxylin and eosin (H&E), or antigen retrieval in sub-boiling 10-mM sodium citrate buffer pH 6.0 for 10 mins. For immunofluorescence (IF), slides were permeabilized in 0.5% TritonX-100 in PBS and blocked in 1% goat serum in PBS for 30 mins at room temperature. After blocking, slides were incubated with anti-Ki67 (1:200, Abcam) overnight in a humidified chamber at 4° C. Sections were washed by PBST (3 times for 5 mins each) and incubated with Alexa Fluor secondary antibodies (1:500) for 1 hr. After washing with PBST, slides were mounted with Fluoroshied with DAPI (Sigma).

For assay [3], the system named is TP53/CDKN2A^KO GEJ organoids. As to the kind of experiment: Average organoid size by phase-contrast imaging. In kind it is cell-based, human. To be noted: WEB2086 at various concentrations vs vehicle control (0.1% DMSO). From the text:
(FIG. 4A) mRNA levels of PTAFR in TP53/CDKN2A^KO vs. control GEJ organoids (left) and normal GEJ vs. EAC tissues. (FIG. 4B) Knockdown of PTAFR mRNA by siRNAs in TP53/CDKN2A^KO GEJ organoids. (FIG. 4C) Average organoid size and (E) cell viability determined by phase-contrast imaging and WST1 assays, respectively. (FIG. 4D) Ki67 labeling images and (FIG. 4E) quantification obtained on Day 7. *P<0.05 vs. same-day siCtrl. Scale bar=100 μm. (FIG. 4F-FIG. 4H) Average organoid size and cell viability (H) determined by phase-contrast imaging and WST1 assays, respectively. (FIG. 4G and FIG. 4H) Ki67 labeling images and quantification obtained on Day 10. Scale bar=100 μm. *P<0.05 vs Ctrl-DMSO on the same day; +, P<0.05 vs. WEB 10 μM on the same day; #P<0.05 vs. WEB 15 μM on the same day;
GEJ organoids were established as described in FIG. 1A. Briefly, fresh endoscopic GEJ biopsies were preserved in ice-cold conditioned PBS (PBS containing 10 μM ROCK inhibitor Y27632, 2% (vol/vol) penicillin/streptomycin, and 1× Primocin) until further processing within 24 hours. After washing biopsies with conditioned PBS at least 5 times, samples were minced into fragments <1 mm^3 using microdissecting scissors. […]
Following centrifugation at 400 g at 4° C. for 3 minutes, pelleted cell clusters were resuspended in Matrigel. […] Culture medium was changed once every three days until the organoids were ready to passage.

Assay [4] concerns TP53/CDKN2A^KO GEJ organoids xenograft. As to the kind of experiment: Xenotransplantation of TP53/CDKN2A^KO organoid cells in nude mice. In kind it is in vivo. To be noted: 5 mg/kg.d intraperitoneal every two days for 3 weeks; 3-month observation; vs 1.25% DMSO. How it is done: (§2) All procedures and experimental protocols involving mice were approved by the Animal Experimental Committee of the Johns Hopkins University School of Medicine. For xenotransplantation of organoids, 2×10^6 organoid cells or ESO26 cells resuspended in cold 50% Matrigel were injected into the axillary of nude mice. For the WEB2086 treatment assay, 5 mg/kg.d of WEB2086 or vehicle control (1.25% DMSO in PBS) was administered by intraperitoneal injection every two days for 3 weeks. Xenograft size was measured twice a week. The xenograft volume (V) was monitored by measuring the length (L) and width (W) with a caliper based on the formula V=1/2×(L×W^2). Mice were sacrificed at the end of the experiment, and xenografts were excised for further analyses.

For a further assay, the system named is Eso26 xenograft. As to the kind of experiment: Eso26 EAC cell line xenograft in nude mice. In kind it is in vivo. The method, then:
as §1
Immunohistochemistry was performed using the automated Bond-Max autostainer by Leica for the following antibodies: AE1/AE3 (1:200, Santa Cruz). Images were acquired with a Lecia Inverted Confocal SP8 (Johns Hopkins Medicine Ross Imaging Center). Reagents used here are listed in the Key Resources Table.
as §2

[5] abbreviates: WEB2086 5 mg/kg.d intraperitoneal every two days for 3 weeks vs vehicle.

Structures are written as SMILES.

For the molecule `Cc1nnc2n1-c1sc(CCC(=O)N3CCOCC3)cc1C(c1ccccc1Cl)=NC2` [WEB2086], the “metabolically active cells (WST-1), onset of decrease” value in assay [1] (WEB2086 at various concentrations vs 0.1% DMSO) is “began to decrease on day 4”. Moreover, in assay [1] (WEB2086 at various concentrations, day 7 and 10), the “inhibitory effect on metabolically active cells (WST-1)” value is “time- and dose-dependent inhibitory effect”. The Ki-67 labeling index entry in assay [2] is recorded as “significantly reduced”. The organoid size entry in assay [3] is given as “significantly reduced”. For the same molecule, in assay [4], the tumor formation result was “completely prevented tumor formation”. Also, in the assay on Eso26 xenograft (setting [5]), the EAC xenograft growth result is on record as “significant suppression” and the EAC xenograft weight result is on record as “significant suppression”. For the same molecule, the “Ki67 expression in tumor xenografts (IHC)” value with Eso26 xenograft (WEB2086 treated Eso26 tumor xenografts) is recorded as “downregulated expression”.
